This is an account of results in ChEMBL document CHEMBL1145498, “A systematic interaction map of validated kinase inhibitors with Ser/Thr kinases” (Proc Natl Acad Sci U S A, 2007).

The target of test [1] is Serine/threonine-protein kinase pim-3 (Homo sapiens) (UniProt Q86V86).
Test [2] addresses T1, 3-phosphoinositide-dependent protein kinase 1 (Homo sapiens) (UniProt O15530).
T1 sequence (whole entry): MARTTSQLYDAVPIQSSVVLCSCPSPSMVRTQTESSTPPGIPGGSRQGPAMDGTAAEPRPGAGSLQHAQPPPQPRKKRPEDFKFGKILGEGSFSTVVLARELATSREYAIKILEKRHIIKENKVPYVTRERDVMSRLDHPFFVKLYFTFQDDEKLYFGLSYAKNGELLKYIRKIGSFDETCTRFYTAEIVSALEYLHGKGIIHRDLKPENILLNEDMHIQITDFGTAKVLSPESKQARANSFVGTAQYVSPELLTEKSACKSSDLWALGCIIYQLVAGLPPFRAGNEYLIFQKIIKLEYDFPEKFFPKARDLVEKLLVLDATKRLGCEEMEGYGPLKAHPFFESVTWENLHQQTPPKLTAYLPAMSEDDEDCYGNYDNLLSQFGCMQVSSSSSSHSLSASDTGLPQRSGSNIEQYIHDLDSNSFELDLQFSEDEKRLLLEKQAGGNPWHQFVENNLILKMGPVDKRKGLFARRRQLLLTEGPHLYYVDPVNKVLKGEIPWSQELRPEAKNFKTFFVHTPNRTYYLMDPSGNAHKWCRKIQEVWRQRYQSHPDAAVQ

Test [3] concerns the target T2, Serine/threonine-protein kinase Nek2 (Homo sapiens) (UniProt P51955).
T2 sequence (whole entry): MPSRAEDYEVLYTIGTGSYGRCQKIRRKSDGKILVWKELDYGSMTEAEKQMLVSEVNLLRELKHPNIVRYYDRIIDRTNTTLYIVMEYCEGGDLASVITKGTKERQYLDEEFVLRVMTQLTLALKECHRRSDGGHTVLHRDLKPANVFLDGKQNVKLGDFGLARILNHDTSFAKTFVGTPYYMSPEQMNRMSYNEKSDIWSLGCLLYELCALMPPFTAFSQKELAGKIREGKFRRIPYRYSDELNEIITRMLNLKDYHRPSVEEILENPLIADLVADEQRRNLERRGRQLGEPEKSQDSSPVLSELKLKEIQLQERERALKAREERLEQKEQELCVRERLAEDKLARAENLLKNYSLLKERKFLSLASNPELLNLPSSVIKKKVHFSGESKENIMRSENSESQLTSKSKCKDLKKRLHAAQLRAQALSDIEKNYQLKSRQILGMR

The target of test [4] is Tyrosine-protein kinase JAK1 (Homo sapiens) (UniProt P23458).
For test [5], the target named is Serine/threonine-protein kinase PAK 5 (Homo sapiens) (UniProt Q9P286).
Test [6] addresses Serine/threonine-protein kinase PAK 4 (Homo sapiens) (UniProt O96013).
In test [7] the target is Serine/threonine-protein kinase Chk2 (Homo sapiens, UniProt O96017).
Test [8] has as its target Mitogen-activated protein kinase 11 (Homo sapiens, UniProt Q15759).
In test [9] the target is T3, Serine/threonine-protein kinase VRK1 (Homo sapiens) (UniProt Q99986).
T3 sequence (whole entry): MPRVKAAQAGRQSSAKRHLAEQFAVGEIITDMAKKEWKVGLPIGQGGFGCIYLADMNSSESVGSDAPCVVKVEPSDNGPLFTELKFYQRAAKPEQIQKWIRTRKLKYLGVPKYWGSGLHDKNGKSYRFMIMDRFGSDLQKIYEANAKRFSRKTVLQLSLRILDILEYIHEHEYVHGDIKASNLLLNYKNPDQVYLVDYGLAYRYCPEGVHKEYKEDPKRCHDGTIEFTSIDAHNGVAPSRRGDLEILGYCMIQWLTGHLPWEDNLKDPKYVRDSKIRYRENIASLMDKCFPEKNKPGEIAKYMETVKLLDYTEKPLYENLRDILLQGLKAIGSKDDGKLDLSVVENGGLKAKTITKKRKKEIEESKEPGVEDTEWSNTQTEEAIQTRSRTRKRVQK

Test [10] deals with cAMP-dependent protein kinase catalytic subunit alpha (Homo sapiens) (UniProt P17612).
The target of test [11] is STE20-like serine/threonine-protein kinase (Homo sapiens) (UniProt Q9H2G2).
Test [12] addresses T4, Serine/threonine-protein kinase PLK4 (Homo sapiens) (UniProt O00444).
T4 sequence (whole entry): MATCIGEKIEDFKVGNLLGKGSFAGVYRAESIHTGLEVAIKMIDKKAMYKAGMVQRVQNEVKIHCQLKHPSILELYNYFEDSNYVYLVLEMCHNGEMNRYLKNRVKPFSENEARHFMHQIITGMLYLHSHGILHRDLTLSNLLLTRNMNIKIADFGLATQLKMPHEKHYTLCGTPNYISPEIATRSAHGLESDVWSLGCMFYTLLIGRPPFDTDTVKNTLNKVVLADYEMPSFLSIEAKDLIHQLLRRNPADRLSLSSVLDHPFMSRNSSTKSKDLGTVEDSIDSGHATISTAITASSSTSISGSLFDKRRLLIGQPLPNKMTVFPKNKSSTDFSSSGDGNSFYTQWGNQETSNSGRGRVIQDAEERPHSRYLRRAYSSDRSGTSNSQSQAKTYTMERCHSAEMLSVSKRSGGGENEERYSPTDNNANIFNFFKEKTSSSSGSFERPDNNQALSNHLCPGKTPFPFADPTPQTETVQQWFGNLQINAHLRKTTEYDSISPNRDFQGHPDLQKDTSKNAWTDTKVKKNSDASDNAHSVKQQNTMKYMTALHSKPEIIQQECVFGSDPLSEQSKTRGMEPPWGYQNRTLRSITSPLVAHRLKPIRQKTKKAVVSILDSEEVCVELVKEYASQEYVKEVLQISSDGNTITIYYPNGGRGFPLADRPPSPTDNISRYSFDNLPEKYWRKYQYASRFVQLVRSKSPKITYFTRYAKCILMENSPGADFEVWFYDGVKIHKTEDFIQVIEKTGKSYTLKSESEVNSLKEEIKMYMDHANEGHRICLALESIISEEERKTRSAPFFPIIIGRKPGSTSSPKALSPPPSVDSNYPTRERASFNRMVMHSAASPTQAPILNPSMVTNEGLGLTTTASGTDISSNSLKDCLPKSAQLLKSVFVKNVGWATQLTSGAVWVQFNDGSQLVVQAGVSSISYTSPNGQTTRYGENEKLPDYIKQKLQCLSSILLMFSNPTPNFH

Sequence of Serine/threonine-protein kinase Chk2 (O96017 whole entry): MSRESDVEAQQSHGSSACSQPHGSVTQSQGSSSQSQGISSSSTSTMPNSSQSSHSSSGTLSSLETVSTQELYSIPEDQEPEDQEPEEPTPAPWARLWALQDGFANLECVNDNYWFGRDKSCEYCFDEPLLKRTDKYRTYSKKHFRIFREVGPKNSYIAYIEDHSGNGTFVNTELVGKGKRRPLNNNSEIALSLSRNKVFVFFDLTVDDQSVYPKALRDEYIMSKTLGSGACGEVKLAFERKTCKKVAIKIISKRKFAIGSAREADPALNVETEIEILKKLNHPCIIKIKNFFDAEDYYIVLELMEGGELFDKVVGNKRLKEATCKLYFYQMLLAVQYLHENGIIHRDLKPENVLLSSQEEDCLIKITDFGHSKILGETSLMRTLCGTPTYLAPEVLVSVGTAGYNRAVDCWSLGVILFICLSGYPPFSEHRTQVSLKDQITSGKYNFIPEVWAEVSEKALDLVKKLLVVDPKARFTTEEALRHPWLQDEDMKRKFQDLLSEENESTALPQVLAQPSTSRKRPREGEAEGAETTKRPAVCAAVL
Sequence of Serine/threonine-protein kinase PAK 5 (Homo sapiens) (Q9P286 whole entry, looked up): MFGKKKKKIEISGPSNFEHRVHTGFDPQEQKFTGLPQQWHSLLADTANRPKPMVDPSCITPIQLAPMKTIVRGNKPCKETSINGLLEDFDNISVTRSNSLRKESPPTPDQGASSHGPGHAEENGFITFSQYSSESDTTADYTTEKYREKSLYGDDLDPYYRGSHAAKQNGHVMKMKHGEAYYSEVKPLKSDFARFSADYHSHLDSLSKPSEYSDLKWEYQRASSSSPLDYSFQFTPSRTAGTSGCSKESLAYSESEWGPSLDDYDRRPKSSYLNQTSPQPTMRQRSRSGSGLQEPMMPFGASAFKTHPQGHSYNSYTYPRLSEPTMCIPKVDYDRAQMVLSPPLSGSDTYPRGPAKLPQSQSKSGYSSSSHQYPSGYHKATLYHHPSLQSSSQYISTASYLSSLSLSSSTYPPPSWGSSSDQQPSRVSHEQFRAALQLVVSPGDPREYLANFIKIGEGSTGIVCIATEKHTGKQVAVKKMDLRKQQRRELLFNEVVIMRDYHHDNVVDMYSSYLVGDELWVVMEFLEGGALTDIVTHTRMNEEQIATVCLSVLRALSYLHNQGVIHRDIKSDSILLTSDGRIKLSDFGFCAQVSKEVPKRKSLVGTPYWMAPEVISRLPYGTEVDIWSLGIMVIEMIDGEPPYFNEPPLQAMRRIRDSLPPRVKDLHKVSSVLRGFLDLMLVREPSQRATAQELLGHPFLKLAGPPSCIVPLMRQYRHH
Sequence of Serine/threonine-protein kinase PAK 4 (Homo sapiens) (O96013 whole entry, looked up): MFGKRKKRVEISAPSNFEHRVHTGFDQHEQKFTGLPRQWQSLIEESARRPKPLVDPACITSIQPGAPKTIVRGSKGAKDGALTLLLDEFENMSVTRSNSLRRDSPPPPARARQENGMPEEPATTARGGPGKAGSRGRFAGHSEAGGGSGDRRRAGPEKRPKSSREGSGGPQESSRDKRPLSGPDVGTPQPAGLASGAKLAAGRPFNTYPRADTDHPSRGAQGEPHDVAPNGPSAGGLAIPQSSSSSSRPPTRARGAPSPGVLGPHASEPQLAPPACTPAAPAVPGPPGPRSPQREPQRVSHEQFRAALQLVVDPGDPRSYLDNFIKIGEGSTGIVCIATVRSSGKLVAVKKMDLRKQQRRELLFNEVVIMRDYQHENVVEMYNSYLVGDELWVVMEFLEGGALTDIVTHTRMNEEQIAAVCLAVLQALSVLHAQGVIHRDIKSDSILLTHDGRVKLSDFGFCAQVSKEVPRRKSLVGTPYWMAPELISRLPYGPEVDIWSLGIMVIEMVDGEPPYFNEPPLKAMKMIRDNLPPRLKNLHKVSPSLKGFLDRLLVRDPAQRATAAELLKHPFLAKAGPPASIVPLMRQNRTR
Sequence of Mitogen-activated protein kinase 11 (Q15759 whole entry): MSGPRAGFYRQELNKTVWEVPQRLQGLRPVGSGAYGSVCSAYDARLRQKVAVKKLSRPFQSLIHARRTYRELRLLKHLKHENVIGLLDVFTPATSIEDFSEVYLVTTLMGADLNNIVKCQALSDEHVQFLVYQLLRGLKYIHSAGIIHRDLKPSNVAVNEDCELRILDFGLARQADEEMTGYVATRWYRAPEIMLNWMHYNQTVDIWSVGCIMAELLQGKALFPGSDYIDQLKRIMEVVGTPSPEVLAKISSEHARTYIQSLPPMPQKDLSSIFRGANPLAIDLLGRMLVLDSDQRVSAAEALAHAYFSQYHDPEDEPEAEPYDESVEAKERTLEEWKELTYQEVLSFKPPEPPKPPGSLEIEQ
Sequence of Tyrosine-protein kinase JAK1 (Homo sapiens) (P23458 whole entry): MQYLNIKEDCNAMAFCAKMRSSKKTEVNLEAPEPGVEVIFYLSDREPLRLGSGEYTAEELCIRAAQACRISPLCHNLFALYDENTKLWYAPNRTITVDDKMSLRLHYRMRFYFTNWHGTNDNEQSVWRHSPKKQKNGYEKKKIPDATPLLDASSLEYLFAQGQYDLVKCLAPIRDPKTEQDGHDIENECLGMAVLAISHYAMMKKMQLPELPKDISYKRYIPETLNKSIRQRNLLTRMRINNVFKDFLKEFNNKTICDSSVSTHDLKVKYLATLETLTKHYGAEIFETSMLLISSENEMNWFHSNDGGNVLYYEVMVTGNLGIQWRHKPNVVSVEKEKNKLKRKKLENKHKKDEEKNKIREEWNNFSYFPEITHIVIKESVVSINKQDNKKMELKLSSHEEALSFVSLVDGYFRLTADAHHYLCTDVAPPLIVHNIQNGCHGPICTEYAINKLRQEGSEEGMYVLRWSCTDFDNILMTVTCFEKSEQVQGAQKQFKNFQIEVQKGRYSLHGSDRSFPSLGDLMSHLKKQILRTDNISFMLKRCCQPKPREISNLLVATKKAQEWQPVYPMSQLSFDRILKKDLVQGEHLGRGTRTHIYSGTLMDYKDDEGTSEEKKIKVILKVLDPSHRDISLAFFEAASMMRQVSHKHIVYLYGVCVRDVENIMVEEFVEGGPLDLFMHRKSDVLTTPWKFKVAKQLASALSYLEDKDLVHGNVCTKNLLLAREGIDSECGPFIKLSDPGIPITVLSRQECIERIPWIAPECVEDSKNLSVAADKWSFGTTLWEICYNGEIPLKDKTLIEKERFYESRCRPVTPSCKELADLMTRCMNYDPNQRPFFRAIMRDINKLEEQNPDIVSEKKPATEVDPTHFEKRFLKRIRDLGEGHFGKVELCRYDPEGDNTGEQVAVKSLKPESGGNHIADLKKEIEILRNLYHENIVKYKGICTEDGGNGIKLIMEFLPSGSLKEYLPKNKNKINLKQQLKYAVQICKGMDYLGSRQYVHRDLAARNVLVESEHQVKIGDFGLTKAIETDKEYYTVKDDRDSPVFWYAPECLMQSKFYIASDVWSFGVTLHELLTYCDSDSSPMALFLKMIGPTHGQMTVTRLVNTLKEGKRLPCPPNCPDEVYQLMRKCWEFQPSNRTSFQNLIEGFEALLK
Sequence of STE20-like serine/threonine-protein kinase (Homo sapiens) (Q9H2G2 whole entry, looked up): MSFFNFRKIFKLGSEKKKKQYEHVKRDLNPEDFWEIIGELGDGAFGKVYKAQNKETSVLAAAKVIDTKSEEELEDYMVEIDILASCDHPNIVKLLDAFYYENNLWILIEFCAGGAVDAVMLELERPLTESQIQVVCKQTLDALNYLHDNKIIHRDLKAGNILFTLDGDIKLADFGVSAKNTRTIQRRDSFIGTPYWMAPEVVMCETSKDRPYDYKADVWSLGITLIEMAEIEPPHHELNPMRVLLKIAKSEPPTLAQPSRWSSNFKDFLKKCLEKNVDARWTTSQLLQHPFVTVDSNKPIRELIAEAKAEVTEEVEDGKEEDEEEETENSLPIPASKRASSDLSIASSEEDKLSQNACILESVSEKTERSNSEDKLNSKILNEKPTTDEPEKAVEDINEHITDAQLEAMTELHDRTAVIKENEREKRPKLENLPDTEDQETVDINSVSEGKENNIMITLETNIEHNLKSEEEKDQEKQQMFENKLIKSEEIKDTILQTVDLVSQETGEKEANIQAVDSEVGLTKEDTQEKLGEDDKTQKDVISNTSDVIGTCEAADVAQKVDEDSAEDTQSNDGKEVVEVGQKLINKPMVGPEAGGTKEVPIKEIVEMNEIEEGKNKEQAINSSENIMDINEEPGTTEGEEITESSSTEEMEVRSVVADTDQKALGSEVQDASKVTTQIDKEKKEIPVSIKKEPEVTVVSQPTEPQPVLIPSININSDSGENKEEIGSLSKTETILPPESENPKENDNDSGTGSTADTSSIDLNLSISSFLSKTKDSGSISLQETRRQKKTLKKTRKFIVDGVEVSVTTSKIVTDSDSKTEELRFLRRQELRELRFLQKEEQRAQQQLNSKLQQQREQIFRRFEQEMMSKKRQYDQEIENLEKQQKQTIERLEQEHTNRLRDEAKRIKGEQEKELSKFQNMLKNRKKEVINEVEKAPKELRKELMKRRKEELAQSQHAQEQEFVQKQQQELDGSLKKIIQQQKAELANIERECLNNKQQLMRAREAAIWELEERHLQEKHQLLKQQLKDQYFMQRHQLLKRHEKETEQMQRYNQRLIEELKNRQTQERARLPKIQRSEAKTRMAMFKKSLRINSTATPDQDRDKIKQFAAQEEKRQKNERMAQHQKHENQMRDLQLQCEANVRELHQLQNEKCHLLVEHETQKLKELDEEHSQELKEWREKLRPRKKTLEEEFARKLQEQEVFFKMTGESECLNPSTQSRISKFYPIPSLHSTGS

For `O=C1Nc2ccc(S(=O)(=O)O)cc2/C1=C1/Nc2ccccc2/C1=N\O`, the thermal shift (ΔTm) in [1] worked out at 5.1 °C; in test [2] it was 0.7 °C; in [3], 3.5 °C; in test [4], 4.3 °C; in test [5] it was 2.1 °C; in [6] it was 2.7 °C. Moreover, the ΔTm is 4.5 °C in test [7]; 1.4 °C in test [8]; 0 °C in test [9]; 1.2 °C in test [10]; 1.1 °C in test [11]; 10.4 °C in [12].
Take `N#CCCc1ccc2c(c1)-c1[nH]c3ccc([N+](=O)[O-])cc3c1CC(=O)N2` [ALSTERPAULLONE 2]: the ΔTm was 1.9 °C in [1]; -0.4 °C in test [2]; 2.2 °C in test [3]; 1.4 °C in test [4]; 3.9 °C in test [5]; 4.3 °C in test [6]. For the same compound, the thermal shift (ΔTm) in test [7] was 8.2 °C; in [8], 0.5 °C; in test [9], 1.1 °C; in [10] it was 1.1 °C; in test [11], 1.8 °C; in test [12] it was 10.3 °C.
As to `COc1ccc(CNc2nc(N(CCO)CCO)nc3c2ncn3C(C)C)cc1`, the ΔTm in [1] is 0.2 °C; in [2] it was 0 °C; in [3] it was 1 °C; in [4], 0.2 °C; in test [5], 1.1 °C; in test [6], 1.7 °C. For the same compound, the thermal shift (ΔTm) in test [7] came to 0.9 °C; in test [8], 1.2 °C; in [9] it was 0.7 °C; in test [10], 0.5 °C; in test [11] it was 0.3 °C; in test [12], 0.5 °C.
Regarding `O=c1cc(N2CCOCC2)oc2c1ccc1ccccc12`, the ΔTm in test [1] amounted to 2 °C; in test [2], 0 °C; in [3], 0.6 °C; in test [4], 0.8 °C; in test [5], 0 °C; in test [6], 0.2 °C. Further, the ΔTm was -0.3 °C in [7]; 1.1 °C in [8]; 0 °C in test [9]; 0.2 °C in test [10]; 0.2 °C in [11]; 0.2 °C in test [12].
Consider `c1ccc(-c2n[nH]c3c2oc2ccccc23)cc1`, for which the thermal shift (ΔTm) is -1.3 °C in [1]; -0.5 °C in test [2]; 0.1 °C in test [3]; 5.2 °C in [4]; 0.3 °C in test [5]; -0.3 °C in test [6]. The ΔTm came out at 0.7 °C in [7]; 1.2 °C in test [8]; 1 °C in test [9]; 2.8 °C in test [10]; 1.6 °C in test [11]; 1.2 °C in test [12].
Turning to `O=C1NC(=O)c2c1c1c3ccccc3[nH]c1n1cncc21` [ISOGRANULATIMIDE], the ΔTm in [1] was 8.8 °C; in test [2], 1.9 °C; in test [3], 2.4 °C; in test [4] it was 7.5 °C; in test [5] it was 1.3 °C; in test [6], 3.8 °C. Further, the ΔTm in [7] amounted to 6.6 °C; in test [8], 2 °C; in [9], 1.7 °C; in test [10], 5.9 °C; in [11] it was 2.1 °C; in test [12], 3.2 °C.
On to `COc1ccc2c(c[n+](C)c3c4cc5c(cc4ccc23)OCO5)c1OC` [CHELERYTHRINE CHLORIDE], for which the ΔTm in test [1] is -0.9 °C; in test [2] it was -0.7 °C; in test [3], -1.2 °C; in test [4], 0.3 °C; in test [5], -1.7 °C; in test [6] it was -3.8 °C. Also, the thermal shift (ΔTm) in [7] was -3.9 °C; in test [8], 0.6 °C; in [9] it was -0.1 °C; in test [10], 1.4 °C; in [11], -2.4 °C; in test [12], -3.1 °C.
On to `CCOc1ccc(/C=C2/SC(=O)N(CCN)C2=O)cc1` [HIAZOLIDINEDIONE1], for which the ΔTm in test [1] was 0.5 °C; in [2], -0.3 °C; in test [3] it was 0.8 °C; in [4], -0.1 °C; in test [5], 0.1 °C; in test [6], 0.6 °C. Further, the ΔTm was 0.7 °C in [7]; 0.5 °C in test [8]; 0.3 °C in test [9]; 0.5 °C in [10]; -0.4 °C in test [11]; 0.3 °C in test [12].
As to `NS(=O)(=O)c1ccc(Nc2nc(OCC3CCCCC3)c3nc[nH]c3n2)cc1`, the ΔTm in [1] is 1.3 °C; in test [2], -0.1 °C; in [3], 4.9 °C; in test [4], 9.5 °C; in test [5], 2.7 °C; in test [6], 3.8 °C. The shift in melting temperature (ΔTm) is 2.5 °C in [7]; 0.6 °C in test [8]; 1.1 °C in test [9]; -0.1 °C in test [10]; 2.2 °C in test [11]; 1.1 °C in test [12].
As for `O=C1Nc2ccccc2/C1=C/c1cnc[nH]1`, the ΔTm in [1] came out at 3.3 °C; in [2], 1.3 °C; in test [3], 2 °C; in [4] it was 6.9 °C; in test [5], 0.7 °C; in test [6], 2.2 °C. In addition, the ΔTm amounted to 3 °C in test [7]; 0.4 °C in [8]; 0.5 °C in test [9]; 1.6 °C in test [10]; 3.3 °C in [11]; 5.8 °C in test [12].
With `Cl.Cn1cc(C2=C(c3ccc4cc5n(c4c3)CCC(CN)C5)C(=O)NC2=O)c2ccccc21` (configuration not stated), the ΔTm was 4.7 °C in test [1]; 0 °C in test [2]; 1.1 °C in test [3]; -2.8 °C in test [4]; 0.1 °C in [5]; 1.6 °C in test [6]. Further, the ΔTm in test [7] was 1 °C; in test [8], -0.1 °C; in test [9], 0.8 °C; in [10], 1.5 °C; in [11], 4.5 °C; in test [12], 0.1 °C.
